In US20060178382A1, “Chinazoline derivatives as aurora kinase inhibitors” (AstraZeneca AB, priority 2003, published 2006):

How the values were obtained:
Aurora-A kinase = target: T1, Aurora-A kinase (Homo sapiens, UniProt O14965); assay: In vitro Aurora-A kinase inhibition test; type: biochemical
T1 construct: 6 histidine tag with spacer region and rTEV protease cleavage site (pFastBac HTc) (N); made in house; host or cells: Spodoptera frugiperda Sf21 insect cells (baculovirus)
T1 sequence (O14965 1-403): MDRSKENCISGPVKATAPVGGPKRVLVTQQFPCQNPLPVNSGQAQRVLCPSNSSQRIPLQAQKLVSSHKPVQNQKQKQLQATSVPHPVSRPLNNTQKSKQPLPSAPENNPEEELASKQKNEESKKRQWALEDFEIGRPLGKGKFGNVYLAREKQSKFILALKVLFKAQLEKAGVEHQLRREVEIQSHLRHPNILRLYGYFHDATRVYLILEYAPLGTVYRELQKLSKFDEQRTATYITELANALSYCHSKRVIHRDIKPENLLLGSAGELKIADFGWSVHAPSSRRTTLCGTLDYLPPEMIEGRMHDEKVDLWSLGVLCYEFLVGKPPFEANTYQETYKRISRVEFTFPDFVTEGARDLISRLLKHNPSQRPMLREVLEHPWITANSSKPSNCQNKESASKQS

Aurora-B kinase = target: T2, Aurora-B kinase (Homo sapiens, UniProt Q96GD4); assay: In vitro Aurora-B kinase inhibition test; type: biochemical; settings: recombinant Aurora-B, [γ33P]ATP, peptide substrate, 60 minutes room temperature; read-out: concentration giving 50% inhibition of enzyme activity
T2 construct: 6-histidine tag; made in house; host or cells: Spodoptera frugiperda Sf21 insect cells (baculovirus)
T2 sequence (Q96GD4 whole entry): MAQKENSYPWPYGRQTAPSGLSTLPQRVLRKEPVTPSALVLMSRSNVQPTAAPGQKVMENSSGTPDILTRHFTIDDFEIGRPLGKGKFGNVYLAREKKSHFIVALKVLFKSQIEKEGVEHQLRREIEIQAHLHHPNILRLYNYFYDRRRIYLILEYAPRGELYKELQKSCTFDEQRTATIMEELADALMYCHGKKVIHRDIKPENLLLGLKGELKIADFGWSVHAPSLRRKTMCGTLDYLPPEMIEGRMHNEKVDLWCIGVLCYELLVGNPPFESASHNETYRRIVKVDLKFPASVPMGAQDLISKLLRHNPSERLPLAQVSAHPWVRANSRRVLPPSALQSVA
Excerpt: (b) In Vitro Aurora-B Kinase Inhibition Test
This assay determines the ability of a test compound to inhibit serine-threonine kinase activity. DNA encoding Aurora-B may be obtained by total gene synthesis or by cloning. This DNA may then be expressed in a suitable expression system to obtain polypeptide with serine-threonine kinase activity. In the case of Aurora-B, the coding sequence was isolated from cDNA by polymerase chain reaction (PCR) and cloned into the pFastBac system in a manner similar to that described above for Aurora-A (i.e. to direct expression of a 6-histidine tagged Aurora-B protein).
For the large scale expression of Aurora-B kinase activity, Sf21 insect cells were grown at 28° C. in TC100 medium supplemented with 10% foetal calf serum (Viralex) and 0.2% F68 Pluronic (Sigma) on a Wheaton roller rig at 3 r.p.m. When the cell density reached 1.2×10^6 cells ml^−1 they were infected with plaque-pure Aurora-B recombinant virus at a multiplicity of infection of 1 and harvested 48 hours later. All subsequent purification steps were performed at 4° C. […]

SMILES | IC50 (Aurora-A kinase) | IC50 (Aurora-B kinase)
COc1cc2c(Nc3cn(CC(=O)Nc4cccc(F)c4)nn3)ncnc2cc1OCCCCl [Compound 1, 2-(4-{[7-(3-chloropropoxy)-6-methoxyguinazolin-4-yl]amino}-1H-1,2,3-triazol-1-yl)-N-(3-fluorophenyl)acetamide] | 900 nM | 100 nM
CCCN(CCO)CCCOc1cc2ncnc(Nc3cn(CC(=O)Nc4cccc(F)c4)nn3)c2cc1OC [Compound 4, N-(3-fluorophenyl)-2-{4-[(7-{3-[(2-hydroxyethyl)(propyl)amino]propoxy}-6-methoxyquinazolin-4-yl)amino]-1H-1,2,3-triazol-1-yl}acetamide] | 500 nM | 100 nM
